Experimental data reported in patent publication US6949250B2, “Selective algaecides for control of cyanochloronta” (The United States of America as represented by the …, priority 2002, dated 2005).
In brackets after ≈: the same amount, converted by molar mass. Entries after “also recorded” stand apart in the source; their conditions may differ. Like-named read-outs stand apart in the source and are kept apart here.

What was measured:
[1] = tested on: MIB; experiment: Pond efficacy testing of 9,10-anthraquinone using limnocorrals: MIB levels; type: in vivo; conditions: dissolved in ethanol, unpublished observations
Excerpt: (§1) Previous research (K. K. Schrader, M. Q. de Regt, P. D. Tidwell, C. S. Tucker and S. O. Duke, Selective growth inhibition of the musty-odor producing cyanobacterium Oscillatoria cf. chalybea by natural compounds. Bull. Environ. Contam. Toxicol. (1998a), vol. 60, pp. 651-658) has identified several natural compounds from plants that are selectively toxic towards O. perornata.

[2] = tested on: O. perornata; conditions: cited from earlier work
[3] = tested on: O. perornata; experiment: Pond efficacy testing of 9,10-anthraquinone using limnocorrals: O. perornata numbers; type: in vivo, Oscillatoria perornata; conditions: dissolved in ethanol, unpublished observations
Excerpt: as §1

[4] = tested on: Oscillatoria perornata; experiment: Rapid bioassay screening for selective algicides (LOEC, LCIC); type: cell-based; conditions: for MIC: read-out: LCIC (lowest-complete-inhibition concentration), Oscillatoria perornata; for minimal effective concentration: read-out: LOEC (lowest-observed-effect concentration), Oscillatoria perornata
Excerpt: (§2) These were screened in the laboratory by the method of Schrader et al. (K. K. Schrader, M. Q. de Regt, C. S. Tucker and S. O. Duke, A rapid bioassay for selective algicides. Weed Technol. (1997), vol. 11, pp. 767-774) for algicidal activity.
(§3) The anthraquinone derivatives were screened for selective toxicity towards Oscillatoria perornata, previously isolated from a Mississippi catfish pond, using the method of Schrader et al. (1997). The green alga Selenastrum capricornutum (obtained from the United States Environmental Protection Agency, Corvallis, Oreg.) was used as the representative green algal species in the bioassay since it is a common species found in southeastern United States catfish ponds. Absorbance readings were graphed, and graphs were used to determine the LOEC (lowest-observed-effect concentration) and the LCIC (lowest-complete-inhibition concentration) for each anthraquinone analog. In addition, a 96-hour 50% inhibition concentration (IC50) was determined for DNA1-19-1 and DNA2-59-1 by using the method described by Schrader et al. (1998b). Stock solutions of DNA1-19-1 and DNA2-59-1 were prepared so that final concentrations screened for 96-hour IC50 determinations were as follows: 1) 0, 0.01, 0.033, 0.1, 0.333, 1.0, 3.3, and 10.0 μM DNA1-19-1 for both O. perornata and S. capricornutum; 2) 0, 0.003, 0.01, 0.033, 0.1, 0.333, 1.0, and 3.333 μM DNA2-59-1 for O. perornata; and 3) 0, 0.1, 0.333, 1.0, 3.333, 10.0, 33.333, and 100.0 μM DNA2-59-1 for S. capricornutum. Estimation of the IC50 was determined by plotting 96-hour absorbance readings against logarithmic dilution values of the anthraquinone analogs. The screening results of the anthraquinone derivatives and commercially available analogs of anthraquinone are presented in Tables 1 and 2, respectively. The results in Table 1 reveal that DNA1-19-1 and DNA2-59-1 are the most promising analogs since these two compounds had the lowest LOEC and LCIC values for O. perornata (10 nM and 100 nM, respectively). Based upon IC50 results in Table 3, DNA2-59-1 appears to be more toxic and selective towards O. perornata than DNA1-19-1.
as §3, with “(A rapid bioassay for selective algicides. Weed Technol. (1997), vol. 11, pp. 767-774).” for “(1997).”, “(K. K. Schradar, M. Q. de Regt, P. D. Tidwell, C. S. Tucker and S. O. Duke, Selective growth inhibition of the musty-odor producing cyanobacterium Oscillatoria cf. chalybea by natural compounds. Bull. Environ. Contam. Toxicol. (1998a), vol.60, pp. 651-658).” for “(1998b).”, “The screening results of the anthraquinone derivatives and commercially available analogs of anthraquinone are presented in Tables 1 and 2, respectively. The results in Table 1 reveal that DNA1-19-1 and DNA2-59-1 are the most promising analogs since these two compounds had the lowest LOEC and LCIC values for O. perornata (10 nM and 100 nM, respectively). Based upon IC50 results in Table 3, DNA2-59-1 appears to be more toxic and selective towards O. perornata than DNA1-19-1.” left out

[5] = tested on: Selenastrum capricornutum; experiment: as above; type: cell-based; conditions: for MIC: read-out: LCIC (lowest-complete-inhibition concentration), Selenastrum capricornutum
Excerpt: as §2, §3
as §3, with “(A rapid bioassay for selective algicides. Weed Technol. (1997), vol. 11, pp. 767-774).” for “(1997).”, “(K. K. Schradar, M. Q. de Regt, P. D. Tidwell, C. S. Tucker and S. O. Duke, Selective growth inhibition of the musty-odor producing cyanobacterium Oscillatoria cf. chalybea by natural compounds. Bull. Environ. Contam. Toxicol. (1998a), vol.60, pp. 651-658).” for “(1998b).”, “The screening results of the anthraquinone derivatives and commercially available analogs of anthraquinone are presented in Tables 1 and 2, respectively. The results in Table 1 reveal that DNA1-19-1 and DNA2-59-1 are the most promising analogs since these two compounds had the lowest LOEC and LCIC values for O. perornata (10 nM and 100 nM, respectively). Based upon IC50 results in Table 3, DNA2-59-1 appears to be more toxic and selective towards O. perornata than DNA1-19-1.” left out

[6] = Planktothrix perornata, rapid screening
[7] = Selenastrum capricornutum, rapid screening

## O=C1c2ccccc2C(=O)c2ccccc21 [9,10-anthraquinone]
[1]
  reduction of MIB levels in pond (result in words): did not effectively reduce
[2]; Schrader et al. 2000
  effect on photosynthesis (result in words): inhibits photosynthesis
[2]; previous research (Schrader et al. 1998)
  activity / toxicity towards O. perornata in the laboratory (result in words): high degree of selective toxicity; also recorded: potent activity
[3]
  reduction of numbers of O. perornata in pond (result in words): did not effectively reduce

## COCCOCCOCCOCCOc1ccc2c(c1)C(=O)c1ccccc1C2=O [DNA3-55-1, 2-[2-[2-[2-(2-Methoxyethoxy)ethoxy]ethoxy]ethoxy]-9,10-anthraquinone]
[4]; [6]
  MIC: 100 µM (≈ 41.4 µg/mL)
  minimal effective concentration: 10000 nM
[5]; [7]
  MIC: > 100 µM
[5]; Selenastrum capricornutum, rapid screening, read-out: LOEC (lowest-observed-effect concentration), Selenastrum capricornutum
  minimal effective concentration: > 100 µM

## O=C1c2ccccc2C(=O)c2cc(COCCOCCOCCO)ccc21 [DNA3-57-1, 2-Methylene-[2-[2-(2-hydroxyethoxy)ethoxy]ethoxy]-9,10-anthraquinone]
[4]; rapid screening
  LCIC (lowest-complete-inhibition concentration), Oscillatoria perornata: 10,000 nM
  minimal effective concentration: 100 nM
[5]; rapid screening
  LCIC (lowest-complete-inhibition concentration), Selenastrum capricornutum: >100,000 nM
  LOEC (lowest-observed-effect concentration), Selenastrum capricornutum: >100,000 nM

## O=C1c2ccccc2C(=O)c2cc(COCCOCCOCCOCCO)ccc21 [DNA3-59-1, 2-Methylene-[2-[2-[2-(2-hydroxyethoxy)ethoxy]ethoxy]ethoxy]-9,10-anthraquinone]
[4]; rapid screening
  LCIC (lowest-complete-inhibition concentration), Oscillatoria perornata: 100,000 nM
  minimal effective concentration: 100 nM
[5]; rapid screening
  LCIC (lowest-complete-inhibition concentration), Selenastrum capricornutum: >100,000 nM
  LOEC (lowest-observed-effect concentration), Selenastrum capricornutum: >100,000 nM

## COCCOCCOCCOCc1ccc2c(c1)C(=O)c1ccccc1C2=O [DNA3-61-1, 2-methylene-[2-[2-(2-methoxyethoxy)ethoxy]ethoxy]-9,10-anthraquinone]
[4]; rapid screening
  LCIC (lowest-complete-inhibition concentration), Oscillatoria perornata: 10,000 nM
  minimal effective concentration: 100 nM
[5]; rapid screening
  LCIC (lowest-complete-inhibition concentration), Selenastrum capricornutum: >100,000 nM
  LOEC (lowest-observed-effect concentration), Selenastrum capricornutum: >100,000 nM

## CCN(CC)Cc1cccc2c1C(=O)c1ccccc1C2=O [DNA4-39-1, 1-[Methylamino-N,N-(diethyl)]-9,10-anthraquinone monophosphate]
[4]; rapid screening
  LCIC (lowest-complete-inhibition concentration), Oscillatoria perornata: 1,000 nM
  minimal effective concentration: 100 nM
[5]; rapid screening
  LCIC (lowest-complete-inhibition concentration), Selenastrum capricornutum: 10,000 nM
  LOEC (lowest-observed-effect concentration), Selenastrum capricornutum: 10,000 nM

## O=C1c2cccc(S(=O)(=O)O)c2C(=O)c2cccc(S(=O)(=O)O)c21 [anthraquinone-1,5-disulfonic acid, reference compound]
[4]; [6]
  MIC: > 1000 µM
[5]; [7]
  MIC: > 1000 µM

## O=C(O)c1ccc2c(c1)C(=O)c1ccccc1C2=O [anthraquinone-2-carboxylic acid, reference compound]
[4]; Planktothrix perornata
  MIC: > 1000 µM
[5]; Selenastrum capricornutum
  MIC: > 1000 µM
